Measurements from PubChem BioAssay (NCI).
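Five compound concentrations were applied to cells in 96-well plates for 48 hours; endpoints were derived by simple linear interpolation of the resulting dose-response curve. The concentration for full growth arrest is given as TGI.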

Key:
Assay in all cases: inhibition of tumour cell growth, NCI panel, 48 h
DMS 114 small cell lung = system: DMS 114 small cell lung
DMS 273 small cell lung = system: DMS 273 small cell lung
HCT-15 colon = system: HCT-15 colon
KM20L2 colon = system: KM20L2 colon
LOX IMVI melanoma = system: LOX IMVI melanoma
M14 melanoma = system: M14 melanoma
NCI-H460 lung = system: NCI-H460 lung
OVCAR-5 ovarian = system: OVCAR-5 ovarian
RXF 393 renal = system: RXF 393 renal
RXF-631 renal = system: RXF-631 renal
SF-295 CNS = system: SF-295 CNS
SNB-78 CNS = system: SNB-78 CNS
SW-620 colon = system: SW-620 colon
U251 CNS = system: U251 CNS
XF 498 CNS = system: XF 498 CNS
DU-145 prostate = system: DU-145 prostate
MALME-3M melanoma = system: MALME-3M melanoma
MDA-MB-435 = system: MDA-MB-435
OVCAR-3 ovarian = system: OVCAR-3 ovarian
HOP-18 NSCLC = system: HOP-18 NSCLC

Row | Compound | TGI (DMS 114 small cell lung) [µM] | TGI (DMS 273 small cell lung) [µM] | TGI (HCT-15 colon) [µM] | TGI (KM20L2 colon) [µM] | TGI (LOX IMVI melanoma) [µM] | TGI (M14 melanoma) [µM] | TGI (NCI-H460 lung) [µM] | TGI (OVCAR-5 ovarian) [µM] | TGI (RXF 393 renal) [µM] | TGI (RXF-631 renal) [µM] | TGI (SF-295 CNS) [µM] | TGI (SNB-78 CNS) [µM] | TGI (SW-620 colon) [µM] | TGI (U251 CNS) [µM] | TGI (XF 498 CNS) [µM] | TGI (DU-145 prostate) [µM] | TGI (MALME-3M melanoma) [µM] | TGI (MDA-MB-435) [µM] | TGI (OVCAR-3 ovarian) [µM] | TGI (HOP-18 NSCLC) [µM]
1 | COC(=O)C(Cc1ccc2c(c1)OCO2)(NC(=O)c1ccccc1)P(=O)(OC)OC (stereo unspecified) | > 100 | > 100 | > 100 | > 100 | > 100 | > 100 | > 100 | > 100 | > 100 | > 100 | > 100 | > 100 | > 100 | > 100 | > 100 |  |  |  |  | 
2 | Nc1ccc(Oc2ccc(C3(c4ccc(Oc5ccc(N)c(O)c5)cc4)C4CC5CC(C4)CC3C5)cc2)cc1O |  |  |  |  |  | 3.18 |  | 5.75 | 4.51 |  | 14.9 |  |  |  |  | 3.68 | 3.92 | 5.22 | 3.35 | 
3 | CC(C)OP(=O)(OC(C)C)C(=Nc1ccc(N=C(NNc2ccc([N+](=O)[O-])cc2)P(=O)(OC(C)C)OC(C)C)cc1)NNc1ccc([N+](=O)[O-])cc1 | > 100 | > 100 | > 100 | > 100 | > 100 | > 100 |  | > 100 |  |  |  |  |  | > 100 | > 100 |  | > 100 |  | > 100 | 
4 | CCOC(=O)/C(C#N)=c1/s/c(=C(\O)N/N=C/c2ccc(OC)cc2)c(=N)n1-c1ccccc1 |  |  |  |  |  |  | > 100 | > 100 |  |  | > 100 |  | > 100 | > 100 |  |  |  |  | > 100 | > 100
